Test results published in ChEMBL document CHEMBL1153603, “Phenethyl pyridines with non-polar internal substituents as selective ligands for estrogen receptor beta” (Eur J Med Chem, 2009).

Legend:
[1] = biological target: T1, Estrogen receptor beta (Homo sapiens, UniProt Q92731); test: Displacement of [3H]estradiol form human ERbeta receptor assessed as relative binding affinity by competitive radiometric binding assay relative to estradiol
[2] = biological target: T1, Estrogen receptor beta; test: Activity at human ERbeta expressed in HEC1 cells co-transfected with 2ERE-pS2-Luc assessed as relative transcriptional potency by luciferase reporter assay; format: cell-based, HEC-1
[3] = biological target: T1, Estrogen receptor beta; test: Activity at human ERbeta expressed in HEC1 cells co-transfected with 2ERE-pS2-Luc assessed as relative transcriptional potency by luciferase reporter assay relative to estradiol; format: cell-based; details: HEC-1
[4] = biological target: T2, Estrogen receptor (Homo sapiens, UniProt P03372); test: Activity at human ERalpha expressed in HEC1 cells co-transfected with 2ERE-pS2-Luc assessed as relative transcriptional potency by luciferase reporter assay; format: cell-based, HEC-1
T2 sequence (P03372 whole entry): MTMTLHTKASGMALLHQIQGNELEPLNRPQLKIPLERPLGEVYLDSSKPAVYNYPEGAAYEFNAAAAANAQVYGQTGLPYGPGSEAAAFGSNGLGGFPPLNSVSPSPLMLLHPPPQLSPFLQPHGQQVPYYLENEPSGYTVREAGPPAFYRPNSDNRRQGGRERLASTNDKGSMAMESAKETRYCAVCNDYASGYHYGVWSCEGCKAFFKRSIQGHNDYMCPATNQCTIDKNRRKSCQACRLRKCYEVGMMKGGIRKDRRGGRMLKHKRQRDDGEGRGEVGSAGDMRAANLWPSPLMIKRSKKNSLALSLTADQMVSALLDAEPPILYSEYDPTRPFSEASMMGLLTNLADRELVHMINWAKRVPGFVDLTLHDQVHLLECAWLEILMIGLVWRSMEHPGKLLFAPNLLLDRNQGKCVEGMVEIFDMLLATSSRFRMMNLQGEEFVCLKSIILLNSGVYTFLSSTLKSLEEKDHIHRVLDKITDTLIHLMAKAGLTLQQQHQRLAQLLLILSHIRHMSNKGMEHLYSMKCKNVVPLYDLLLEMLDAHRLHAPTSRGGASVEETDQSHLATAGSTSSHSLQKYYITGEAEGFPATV

T1 sequence (Q92731 whole entry): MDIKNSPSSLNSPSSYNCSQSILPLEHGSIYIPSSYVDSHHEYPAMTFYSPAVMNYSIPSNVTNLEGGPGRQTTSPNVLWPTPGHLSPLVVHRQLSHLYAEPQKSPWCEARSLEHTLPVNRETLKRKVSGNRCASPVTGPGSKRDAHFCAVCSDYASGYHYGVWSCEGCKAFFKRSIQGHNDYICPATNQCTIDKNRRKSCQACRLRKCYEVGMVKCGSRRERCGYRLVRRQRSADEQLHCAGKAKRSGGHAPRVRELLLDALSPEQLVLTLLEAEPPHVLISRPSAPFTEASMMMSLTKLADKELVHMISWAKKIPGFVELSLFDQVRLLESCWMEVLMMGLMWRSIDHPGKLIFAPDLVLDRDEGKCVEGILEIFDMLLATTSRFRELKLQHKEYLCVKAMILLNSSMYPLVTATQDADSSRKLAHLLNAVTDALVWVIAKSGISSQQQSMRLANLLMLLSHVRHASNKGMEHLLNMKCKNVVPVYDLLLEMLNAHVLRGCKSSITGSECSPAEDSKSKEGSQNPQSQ

## CCC(Cc1ccc(O)cn1)c1ccc(O)cc1 (stereo not given)
[1]
  RBA: 0.15%

## CC[C@H](c1ccc(O)cn1)[C@H](C)c1ccc(O)cc1 (relative stereo)
[1]
  RBA: 0.119%

## Oc1ccc(CCc2ccc(O)cn2)cc1
[1]
  RBA: 0.025%

## CC(Cc1ccc(O)cc1)c1ccc(O)cn1 (stereo not given)
[2]
  EC50: 60 nM
[1]
  RBA: 0.27%
[3]
  Activity: 0.83%
[4]
  EC50: 330 nM

## CC[C@H](c1ccc(O)cn1)[C@@H](CC)c1ccccc1
[1]
  RBA: 0.684%

## CCC(Cc1ccc(O)cc1)c1ccc(O)cn1 (stereo not given)
[2]
  EC50: 17 nM
[1]
  RBA: 0.72%
[3]
  Activity: 2.94%
[4]
  EC50: 65 nM

## CC[C@H](c1ccc(O)cc1)[C@H](CC)c1ccc(O)cn1 (relative stereo)
[2]
  EC50: 26 nM
[1]
  RBA: 0.67%
[3]
  Activity: 1.9%
[4]
  EC50: 16 nM

## CC[C@H](c1ccccc1)[C@H](CC)c1ccc(O)cn1
[1]
  RBA: 0.023%

## CC[C@H](c1ccc(O)cn1)[C@@H](C)c1ccc(O)cc1 (relative stereo)
[2]
  EC50: 1.1 nM
[1]
  RBA: 5.3%
[3]
  Activity: 45%
[4]
  EC50: 0.11 nM

## CC[C@H](c1ccc(O)cn1)[C@@H](CC)c1ccc(O)cc1 (relative stereo)
[2]
  EC50: 0.61 nM
[1]
  RBA: 7.5%
[3]
  Activity: 82%
[4]
  EC50: 0.11 nM

## CCCC(Cc1ccc(O)cc1)c1ccc(O)cn1 (stereo not given)
[1]
  RBA: 0.101%

## CC(Cc1ccc(O)cn1)c1ccc(O)cc1 (stereo not given)
[2]
  EC50: 170 nM
[1]
  RBA: 0.17%
[3]
  Activity: 0.29%
[4]
  EC50: 440 nM
